Active and inactive are the calls of the source.
How the values were obtained:
Genome polyprotein = Genome polyprotein (dengue virus type 2, UniProt P29990); experiment: flavivirus cap methylation enzyme inhibition – biochemical, confirmation dose response, primary screen (AID 588689); assay type: functional
cells = assay type: functional
BJ [1] = experiment: BJ-TERT-LT-ST fibroblast viability loss – cell-based, RAS-independent, luminescence, dose response (AID 1935); assay type: functional; conditions: Homo sapiens;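 also: BJ fibroblasts immortalized with TERT plus LT and ST oncogenes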
BJ [2] = experiment: BJ-TERT fibroblast viability loss – cell-based, RAS-independent, luminescence, dose response (AID 1933); assay type: functional; conditions: Homo sapiens
[3] = DRD fibroblast viability loss – cell-based, non-viral oncogenic, luminescence, dose response (AID 1934); assay type: functional; conditions: Homo sapiens
BJ [4] = experiment: cells; assay type: functional, cell-based; conditions: Homo sapiens
Large T antigen = Large T antigen (Simian virus 40, UniProt P03070); assay type: functional, Betapolyomavirus macacae;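 also: Confirmatory-stage PubChem screen for compounds that inhibit SV40 T antigen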
[5] = target: T1, Carboxy-terminal domain RNA polymerase II polypeptide A small phosphatase 1 (Homo sapiens, UniProt Q9GZU7); experiment: CTDSP1 inhibitors, concentration-response, biochemical, absorbance readout, ultra-high-throughput screen actives (AID 540297); assay type: functional
T1 sequence (Q9GZU7 whole entry): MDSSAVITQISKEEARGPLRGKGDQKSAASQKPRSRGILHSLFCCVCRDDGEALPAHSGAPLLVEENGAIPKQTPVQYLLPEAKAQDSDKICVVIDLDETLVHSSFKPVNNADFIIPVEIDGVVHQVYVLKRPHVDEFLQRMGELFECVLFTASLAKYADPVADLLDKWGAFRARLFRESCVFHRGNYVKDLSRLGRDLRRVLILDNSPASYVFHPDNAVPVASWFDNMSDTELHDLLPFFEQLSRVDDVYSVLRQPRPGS

Protein RecA = target: T2, Protein RecA (Mycobacterium tuberculosis, UniProt P9WHJ3); experiment: Fluorescence Cell-Free Homogeneous Dose Retest to Identify Inhibitors of RecA-Intein Splicing Activity. [Related pubchem assays (depositor defined):AID2097, AID2223, AID489010, AID492950]; assay type: functional
T2 sequence (P9WHJ3 whole entry): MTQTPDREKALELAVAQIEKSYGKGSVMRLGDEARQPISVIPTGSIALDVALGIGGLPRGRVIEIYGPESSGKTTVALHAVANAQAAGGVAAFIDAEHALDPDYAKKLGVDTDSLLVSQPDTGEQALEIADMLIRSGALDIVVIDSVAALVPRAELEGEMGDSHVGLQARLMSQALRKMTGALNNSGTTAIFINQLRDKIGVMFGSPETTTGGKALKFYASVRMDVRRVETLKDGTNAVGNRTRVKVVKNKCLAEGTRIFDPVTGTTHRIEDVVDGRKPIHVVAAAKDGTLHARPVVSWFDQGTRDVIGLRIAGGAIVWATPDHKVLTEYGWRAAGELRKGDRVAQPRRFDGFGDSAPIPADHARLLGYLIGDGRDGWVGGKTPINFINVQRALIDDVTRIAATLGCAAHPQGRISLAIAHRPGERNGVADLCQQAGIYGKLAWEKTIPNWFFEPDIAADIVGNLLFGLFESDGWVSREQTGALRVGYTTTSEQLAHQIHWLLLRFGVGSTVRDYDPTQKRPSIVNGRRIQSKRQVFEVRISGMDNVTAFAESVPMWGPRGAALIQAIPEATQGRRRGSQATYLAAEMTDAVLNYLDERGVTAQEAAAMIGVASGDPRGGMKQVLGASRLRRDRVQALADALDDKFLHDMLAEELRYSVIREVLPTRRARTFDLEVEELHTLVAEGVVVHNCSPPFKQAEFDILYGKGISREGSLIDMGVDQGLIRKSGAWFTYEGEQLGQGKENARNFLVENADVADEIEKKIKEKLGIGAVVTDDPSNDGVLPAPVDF

[6] = target: T3, Replicative DNA helicase DnaB (Mycobacterium tuberculosis, UniProt P9WMR3); experiment: DnaB intein splicing inhibitors, dose response, biochemical, cell-free fluorescence (AID 449749); assay type: functional
T3 sequence (P9WMR3 whole entry): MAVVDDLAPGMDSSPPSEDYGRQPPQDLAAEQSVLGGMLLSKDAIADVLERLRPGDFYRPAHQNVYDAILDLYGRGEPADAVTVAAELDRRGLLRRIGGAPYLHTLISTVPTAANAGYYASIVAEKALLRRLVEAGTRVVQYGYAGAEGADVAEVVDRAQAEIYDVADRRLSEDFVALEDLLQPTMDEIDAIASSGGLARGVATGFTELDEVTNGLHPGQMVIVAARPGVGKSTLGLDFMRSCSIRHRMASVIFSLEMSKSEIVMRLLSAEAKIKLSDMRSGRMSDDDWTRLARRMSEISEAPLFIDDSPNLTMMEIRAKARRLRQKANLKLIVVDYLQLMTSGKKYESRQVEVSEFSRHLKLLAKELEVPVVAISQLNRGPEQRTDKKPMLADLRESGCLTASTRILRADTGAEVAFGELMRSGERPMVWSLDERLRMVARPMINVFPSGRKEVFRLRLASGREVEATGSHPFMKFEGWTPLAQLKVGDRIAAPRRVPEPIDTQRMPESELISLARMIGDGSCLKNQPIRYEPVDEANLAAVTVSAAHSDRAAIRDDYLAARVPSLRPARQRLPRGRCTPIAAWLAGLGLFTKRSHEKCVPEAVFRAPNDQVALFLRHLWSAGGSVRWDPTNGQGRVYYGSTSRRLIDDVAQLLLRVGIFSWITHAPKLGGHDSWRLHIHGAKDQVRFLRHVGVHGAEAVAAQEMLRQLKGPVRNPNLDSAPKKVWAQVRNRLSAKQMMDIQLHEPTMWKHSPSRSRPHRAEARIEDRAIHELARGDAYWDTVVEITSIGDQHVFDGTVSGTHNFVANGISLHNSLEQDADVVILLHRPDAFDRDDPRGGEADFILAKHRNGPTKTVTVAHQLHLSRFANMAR

Leucine aminopeptidase = target: T4, Leucine aminopeptidase (Plasmodium falciparum 3D7, UniProt Q8IL11); experiment: P. falciparum M17LAP inhibitors, primary screen, biochemical, fluorogenic H-Leu-NHMec substrate, 1536-well (AID 1619); assay type: functional
T4 sequence (Q8IL11 whole entry): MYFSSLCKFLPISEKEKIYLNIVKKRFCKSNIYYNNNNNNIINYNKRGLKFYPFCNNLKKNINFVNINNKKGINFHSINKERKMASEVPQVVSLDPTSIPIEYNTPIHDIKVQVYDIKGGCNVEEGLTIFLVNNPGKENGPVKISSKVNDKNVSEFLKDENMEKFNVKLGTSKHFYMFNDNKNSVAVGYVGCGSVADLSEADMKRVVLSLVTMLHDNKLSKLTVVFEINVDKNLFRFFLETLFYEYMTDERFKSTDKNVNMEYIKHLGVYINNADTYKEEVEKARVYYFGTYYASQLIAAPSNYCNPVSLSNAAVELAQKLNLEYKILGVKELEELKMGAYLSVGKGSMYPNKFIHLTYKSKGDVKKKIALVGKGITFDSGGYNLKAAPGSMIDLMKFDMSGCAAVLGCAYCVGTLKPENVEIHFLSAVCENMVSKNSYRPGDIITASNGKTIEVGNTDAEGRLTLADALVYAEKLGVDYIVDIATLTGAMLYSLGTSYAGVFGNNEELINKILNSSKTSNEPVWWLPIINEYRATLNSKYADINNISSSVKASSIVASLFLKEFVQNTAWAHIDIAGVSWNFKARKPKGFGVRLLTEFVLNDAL

[7] = target: T5, DNA repair protein RAD52 homolog (Homo sapiens, UniProt P43351); assay type: functional, biochemical
T5 sequence (P43351 whole entry): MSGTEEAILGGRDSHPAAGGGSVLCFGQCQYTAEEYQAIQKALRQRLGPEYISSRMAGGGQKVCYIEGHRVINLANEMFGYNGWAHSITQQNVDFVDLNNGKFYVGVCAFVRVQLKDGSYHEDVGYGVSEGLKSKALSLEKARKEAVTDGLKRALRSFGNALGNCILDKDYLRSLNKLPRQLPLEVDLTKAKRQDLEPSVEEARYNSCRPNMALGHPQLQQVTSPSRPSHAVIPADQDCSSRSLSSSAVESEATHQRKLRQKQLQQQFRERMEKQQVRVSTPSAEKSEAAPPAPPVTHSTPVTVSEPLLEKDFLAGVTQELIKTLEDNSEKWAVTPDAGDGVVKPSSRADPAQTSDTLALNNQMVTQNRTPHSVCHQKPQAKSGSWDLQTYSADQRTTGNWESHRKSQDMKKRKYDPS

[8] = target: T6, RNA-binding protein pos-1 (Caenorhabditis elegans, UniProt G5EF15); experiment: disruptors of C. elegans POS-1 RNA interaction – biochemical, fluorescence polarization, dose response (AID 1964);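 also: purified POS-1 fused to maltose binding protein made in E. coli; potency of compounds blocking POS-1 binding to fluorescent RNA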
T6 sequence (G5EF15 whole entry): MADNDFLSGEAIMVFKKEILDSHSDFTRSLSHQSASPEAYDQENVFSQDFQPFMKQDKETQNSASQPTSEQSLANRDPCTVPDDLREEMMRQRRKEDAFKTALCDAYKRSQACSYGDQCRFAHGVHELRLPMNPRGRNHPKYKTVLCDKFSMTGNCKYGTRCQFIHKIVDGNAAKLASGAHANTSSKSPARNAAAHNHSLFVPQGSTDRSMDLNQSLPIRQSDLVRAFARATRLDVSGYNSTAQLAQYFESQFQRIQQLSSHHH

[9] = target: T7, Zinc finger protein mex-5 (Caenorhabditis elegans, UniProt Q9XUB2); experiment: potency of MEX-5 RNA-binding blockers – biochemical, C. elegans, fluorescence polarization, dose response (AID 1960)
T7 sequence (Q9XUB2 whole entry): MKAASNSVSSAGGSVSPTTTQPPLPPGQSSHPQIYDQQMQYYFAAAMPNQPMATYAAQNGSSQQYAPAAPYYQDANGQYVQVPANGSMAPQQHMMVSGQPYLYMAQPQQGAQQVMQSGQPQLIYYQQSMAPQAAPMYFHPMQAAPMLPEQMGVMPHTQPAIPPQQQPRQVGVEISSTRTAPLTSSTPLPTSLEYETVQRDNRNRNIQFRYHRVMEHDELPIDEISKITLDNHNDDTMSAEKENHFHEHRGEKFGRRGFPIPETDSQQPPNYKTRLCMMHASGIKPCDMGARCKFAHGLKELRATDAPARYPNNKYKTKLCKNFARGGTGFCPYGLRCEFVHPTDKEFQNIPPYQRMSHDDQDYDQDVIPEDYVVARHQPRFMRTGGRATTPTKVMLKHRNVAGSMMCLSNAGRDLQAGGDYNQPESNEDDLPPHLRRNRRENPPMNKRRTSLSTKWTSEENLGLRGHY

[10] = target: Induced myeloid leukemia cell differentiation protein Mcl-1 (Homo sapiens, UniProt Q07820); assay type: functional
[11] = target: T8, Ubiquitin-conjugating enzyme E2 N (Homo sapiens, UniProt P61088); assay type: functional;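 also: Dose-response confirmation in a TR-FRET assay detecting UBC13-driven polyubiquitin chain formation, inhibition measured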
T8 sequence (P61088 whole entry): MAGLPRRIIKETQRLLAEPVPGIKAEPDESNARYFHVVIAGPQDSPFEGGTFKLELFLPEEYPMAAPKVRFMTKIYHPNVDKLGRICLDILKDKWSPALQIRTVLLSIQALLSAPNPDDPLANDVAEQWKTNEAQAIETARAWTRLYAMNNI

[12] = target: T9, Polyadenylate-binding protein 1 (Homo sapiens, UniProt P11940); experiment: MLLE domain peptide-binding blockers, IC50 – biochemical, fluorescence polarization, FITC-PAM2 peptide, dose response (AID 602259); assay type: functional; conditions: read-out: IC50_Mean
[13] = target: T9, Polyadenylate-binding protein 1; experiment: MLLE binding blockers, Cy5 peptide tracer – biochemical, fluorescence polarization, Cy5-PAM2 peptide, secondary, miRNA deadenylation inhibitor project, dose response (AID 602260); assay type: functional; conditions: read-out: IC50_Mean

Genome polyprotein, sequence (P29990 2492-3391 limits assumed): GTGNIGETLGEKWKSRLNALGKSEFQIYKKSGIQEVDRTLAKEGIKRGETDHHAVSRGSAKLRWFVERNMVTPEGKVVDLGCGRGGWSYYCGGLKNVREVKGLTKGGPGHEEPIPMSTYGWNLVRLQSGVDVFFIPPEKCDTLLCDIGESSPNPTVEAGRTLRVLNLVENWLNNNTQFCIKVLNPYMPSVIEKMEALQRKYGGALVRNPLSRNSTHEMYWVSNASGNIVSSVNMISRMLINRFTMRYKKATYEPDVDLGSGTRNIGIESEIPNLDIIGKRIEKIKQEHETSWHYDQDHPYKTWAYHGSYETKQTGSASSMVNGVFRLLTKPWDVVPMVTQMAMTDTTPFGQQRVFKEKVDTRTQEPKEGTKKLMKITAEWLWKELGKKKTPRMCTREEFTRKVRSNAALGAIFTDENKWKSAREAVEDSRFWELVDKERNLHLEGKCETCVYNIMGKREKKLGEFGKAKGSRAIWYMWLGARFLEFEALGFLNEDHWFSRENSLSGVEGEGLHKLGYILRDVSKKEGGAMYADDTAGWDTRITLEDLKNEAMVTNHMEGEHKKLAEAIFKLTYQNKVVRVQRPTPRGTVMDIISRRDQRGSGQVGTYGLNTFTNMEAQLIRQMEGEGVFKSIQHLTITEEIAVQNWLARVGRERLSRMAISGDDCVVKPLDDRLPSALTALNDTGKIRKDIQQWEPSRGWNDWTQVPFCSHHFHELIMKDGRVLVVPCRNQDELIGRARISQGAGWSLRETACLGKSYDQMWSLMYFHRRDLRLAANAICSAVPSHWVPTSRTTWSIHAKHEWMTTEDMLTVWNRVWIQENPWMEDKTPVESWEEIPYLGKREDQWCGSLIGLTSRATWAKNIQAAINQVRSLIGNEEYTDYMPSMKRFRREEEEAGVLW
Large T antigen, sequence (P03070 whole entry, the tested form may be a part): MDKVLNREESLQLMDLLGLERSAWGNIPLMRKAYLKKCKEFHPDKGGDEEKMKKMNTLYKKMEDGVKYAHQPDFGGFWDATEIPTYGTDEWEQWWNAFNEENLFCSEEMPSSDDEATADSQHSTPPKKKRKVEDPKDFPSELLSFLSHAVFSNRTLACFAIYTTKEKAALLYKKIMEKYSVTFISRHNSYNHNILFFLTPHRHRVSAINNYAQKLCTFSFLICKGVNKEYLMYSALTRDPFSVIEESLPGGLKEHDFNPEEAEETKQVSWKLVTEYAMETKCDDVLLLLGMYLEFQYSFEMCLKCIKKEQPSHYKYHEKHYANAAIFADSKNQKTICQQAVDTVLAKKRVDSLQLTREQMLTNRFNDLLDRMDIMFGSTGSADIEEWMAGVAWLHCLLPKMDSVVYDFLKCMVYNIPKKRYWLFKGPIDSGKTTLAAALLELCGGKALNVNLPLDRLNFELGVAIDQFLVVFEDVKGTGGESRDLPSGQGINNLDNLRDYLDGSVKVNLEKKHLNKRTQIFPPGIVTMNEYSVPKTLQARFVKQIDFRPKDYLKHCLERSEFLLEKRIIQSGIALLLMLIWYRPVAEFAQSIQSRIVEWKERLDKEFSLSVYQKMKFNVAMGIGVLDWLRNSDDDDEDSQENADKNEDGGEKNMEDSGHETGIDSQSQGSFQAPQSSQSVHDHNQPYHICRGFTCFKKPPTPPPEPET
T9 sequence (P11940 whole entry, the tested form may be a part): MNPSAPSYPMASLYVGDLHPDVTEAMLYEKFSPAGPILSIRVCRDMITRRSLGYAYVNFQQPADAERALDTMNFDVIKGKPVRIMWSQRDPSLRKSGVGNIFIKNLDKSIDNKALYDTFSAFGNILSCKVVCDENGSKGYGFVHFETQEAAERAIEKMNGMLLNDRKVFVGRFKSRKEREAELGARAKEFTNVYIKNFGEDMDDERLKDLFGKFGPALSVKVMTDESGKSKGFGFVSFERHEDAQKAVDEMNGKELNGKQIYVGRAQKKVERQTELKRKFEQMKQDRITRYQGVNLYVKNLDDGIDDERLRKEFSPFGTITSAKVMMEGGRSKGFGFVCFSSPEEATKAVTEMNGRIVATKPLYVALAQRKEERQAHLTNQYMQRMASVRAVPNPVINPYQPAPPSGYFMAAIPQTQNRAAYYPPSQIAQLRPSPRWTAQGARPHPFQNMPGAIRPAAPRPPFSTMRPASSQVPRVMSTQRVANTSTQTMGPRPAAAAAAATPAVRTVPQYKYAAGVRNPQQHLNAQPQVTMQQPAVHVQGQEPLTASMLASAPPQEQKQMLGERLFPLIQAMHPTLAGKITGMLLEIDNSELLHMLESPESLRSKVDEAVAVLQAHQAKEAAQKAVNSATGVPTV
Induced myeloid leukemia cell differentiation protein Mcl-1, sequence (Q07820 whole entry): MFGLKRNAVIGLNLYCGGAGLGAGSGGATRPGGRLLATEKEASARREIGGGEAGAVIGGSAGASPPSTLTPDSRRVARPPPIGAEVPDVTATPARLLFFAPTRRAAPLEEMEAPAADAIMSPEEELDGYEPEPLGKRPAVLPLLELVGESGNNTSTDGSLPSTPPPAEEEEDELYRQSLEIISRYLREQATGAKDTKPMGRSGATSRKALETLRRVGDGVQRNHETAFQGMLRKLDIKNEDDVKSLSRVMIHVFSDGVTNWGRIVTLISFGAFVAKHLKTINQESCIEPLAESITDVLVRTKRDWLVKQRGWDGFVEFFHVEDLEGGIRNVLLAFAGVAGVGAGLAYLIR

With `COc1ccc(N2C(=O)NC(=O)/C(=C\c3ccccc3[N+](=O)[O-])C2=O)cc1` the IC50 (Genome polyprotein) was 32 µM (active).

In the case of `CC1(C)OC(c2ccccc2)=C/C(=C\C=N\NC(=O)c2ccncc2)O1`, the IC50 (cells) is reported as 1.06 µM (active).

With `CCC(=O)N1CCN(c2cc3c(cc2F)c(=O)c(C(=O)O)cn3CC)CC1` the IC50 (cells) was 6.76 µM (active).

With `COc1cc(C(=O)Nc2ccc3ccccc3c2)cc(OC)c1OC` the EC50 (BJ [1]) was 1.44 µM (active), the EC50 (BJ [2]) was 3.2 µM (active) and the EC50 [3] was 1.33 µM (active). For the same molecule, the EC50 (BJ [4]) was > 150 µM (not active).

With `COc1cc(/C=C2\C(=N)N3N=C(S(C)(=O)=O)SC3=NC2=O)ccc1OS(=O)(=O)c1ccc(C)cc1` the IC50 (Large T antigen) was 64.6 µM (active) and the IC50 [5] was 3.81 µM (active).

In the case of `Cc1ccc(-c2[nH]nc3c2C(c2cccnc2)C(C#N)=C(N)O3)cc1` (stereo not given), the EC50 (Protein RecA) is reported as 1.3 µM (active), the AC50 [6] is reported as 5.17 µM (active) and the IC50 (Leucine aminopeptidase) is reported as 25.8 µM (active).

For `Nc1ccc2[nH]c(CCCO)nc2c1`, the AC50 [7] was 8.48 µM (active), the IC50 (Large T antigen) was 21.2 µM (active) and the EC50 [8] was 36.7 µM (active). The EC50 [9] was 4.35 µM (inconclusive).

With `CCc1ccc(N2C(=O)C(Cl)=C(N3CCOCC3)C2=O)cc1` the EC50 (Protein RecA) was 0.34 µM (active), the AC50 [6] was 6.99 µM (active) and the IC50 (Genome polyprotein) was 45.1 µM (active).

In the case of `CCOc1ccc(/C=N/OCC(=O)Nc2ccc3c(c2)OCO3)cc1`, the IC50 (cells) is reported as 18.1 µM (active).

With `CC[C@H](C)NC(=O)c1ccc(Cn2c(=S)[nH]c3c([nH]c4ccc(OC)cc43)c2=O)cc1` the IC50 [5] was 4.67 µM (active) and the IC50 [10] was 5.25 µM (active).

With `O=C(Cn1c(=O)oc2cc(S(=O)(=O)N3CCCCCC3)ccc21)NC1CCCCCCC1` the IC50 [5] was 9.64 µM (active).

For `CCOc1ccccc1CNS(=O)(=O)c1ccc(-c2cnc(C3CC3)o2)cc1`, the EC50 (BJ [1]) was 0.703 µM (inconclusive), the EC50 (BJ [2]) was 0.535 µM (inconclusive) and the EC50 [3] was 19.7 µM (inconclusive). The EC50 (BJ [4]) was 46.3 µM (active).

In the case of `CCC(C)[C@H](N)c1cn([C@@H](Cc2cc3ccccc3[nH]2)C(=O)N2CCNCC2)nn1` (stereo not given in full), the AC50 [7] is reported as 8.23 µM (active) and the IC50 [11] is reported as > 20 µM (inactive).

In the case of `COc1ccccc1NC(=O)CSc1sc2c(O)cc(=O)[nH]c2c1C#N`, the IC50 [5] is reported as 6.42 µM (active).

With `CN(C)c1ccc(C=C2C(=O)NC(=S)NC2=O)cc1[N+](=O)[O-]` the IC50 (Large T antigen) was 73.7 µM (active), the IC50 [12] was > 66 µM (inactive) and the IC50 (Leucine aminopeptidase) was 76.6 µM (active). For the same molecule, the IC50 (Genome polyprotein) was 12.8 µM (active) and the IC50 [13] was > 66 µM (inactive).

From ChEMBL document CHEMBL1201862, “PubChem BioAssay data set” (2004)
